The structures appear in SMILES notation. Bounds are passed on as bounds.

The test system of assay [1] is Fluoribacter gormanii. The experiment in a line: Activity at Fluoribacter gormanii 1K07 metallo-beta-lactamase FEZ-1.
Assay [2] has as its system Stenotrophomonas maltophilia. Put plainly: Ratio of Kcat to Km for Stenotrophomonas maltophilia 1SML metallo-beta-lactamase L1.
In assay [3] the test system is Fluoribacter gormanii. The experiment in a line: Ratio of Kcat to Km for Fluoribacter gormanii 1K07 metallo-beta-lactamase FEZ-1.
Assay [4] relates to Stenotrophomonas maltophilia. The experiment in a line: Activity at Stenotrophomonas maltophilia 1SML metallo-beta-lactamase L1.
Assay [5] deals with Bradyrhizobium japonicum. The experiment in a line: Ratio of Kcat to Km for Bradyrhizobium japonicum metallo-beta-lactamase BJP-1.
In assay [6] the test system is Bradyrhizobium japonicum. Put plainly: Activity at Bradyrhizobium japonicum metallo-beta-lactamase BJP-1.

For the compound `CC1(C)S[C@@H]2[C@H](NC(=O)[C@H](C(=O)O)c3ccsc3)C(=O)N2[C@H]1C(=O)O`, the figures for the Km (in the assay on Fluoribacter gormanii [1]; in assay [4]) were more than 5000 µM and 140 µM, respectively. Besides, the kcat/Km in assay [2] came out at 2.7 ×10⁶ /M/s; in the assay on Fluoribacter gormanii [3], 1.3 ×10⁴ /M/s.

On to `C[C@@H](O)[C@H]1C(=O)N2C(C(=O)O)=C(SCCNC=N)C[C@H]12`, for which the values for the kcat/Km (in the assay with Bradyrhizobium japonicum [5]; in assay [2]; with Fluoribacter gormanii [3]) were 6 ×10⁴ /M/s, 7.3 ×10⁵ /M/s and 2 ×10⁵ /M/s, respectively. For the same compound, the Michaelis constant (Km) with Fluoribacter gormanii [1] is more than 1000 µM; in assay [4] it was 90 µM; in the assay with Bradyrhizobium japonicum [6], 260 µM.

`CCN1CCN(C(=O)N[C@@H](C(=O)N[C@@H]2C(=O)N3[C@@H]2SC(C)(C)[C@@H]3C(=O)O)c2ccccc2)C(=O)C1=O`: the kcat/Km in the assay on Bradyrhizobium japonicum [5] was 6.7 ×10⁴ /M/s; in assay [2], 7 ×10⁶ /M/s; with Fluoribacter gormanii [3], 1.2 ×10⁴ /M/s. Further, the Km with Fluoribacter gormanii [1] amounted to 4200 µM; in assay [4] it was 20 µM; in the assay on Bradyrhizobium japonicum [6], 700 µM.

Consider `CC1(C)S[C@@H]2[C@H](NC(=O)[C@H](N)c3ccccc3)C(=O)N2[C@H]1C(=O)O`, for which the results for the kcat/Km (in the assay with Bradyrhizobium japonicum [5]; in assay [2]; in the assay on Fluoribacter gormanii [3]) were 1.9 ×10⁴ /M/s, 4.4 ×10⁶ /M/s and 1.1 ×10⁴ /M/s, respectively. In addition, the Michaelis-Menten constant (Km) with Fluoribacter gormanii [1] is more than 5000 µM; in assay [4], 40 µM; in the assay on Bradyrhizobium japonicum [6], 670 µM.

As usually defined, the Km is the concentration of substrate that gives half-maximal velocity.

Values taken from ChEMBL document CHEMBL1687782, “High-resolution crystal structure of the subclass B3 metallo-beta-lactamase BJP-1: rational basis for substrate specificity and interaction with sulfonamides” (Antimicrob Agents Chemother, 2010).
